# In EPA's ToxRefDB 2:
# What was measured:
# rat [1] = conditions: Sub-acute repeat dose toxicity, Oral, Gavage/Intubation, dose end: 4 day, group: systemic
# rat [2] = conditions: Sub-acute repeat dose toxicity, Oral, Gavage/Intubation, dose end: 4 day, group: systemic; remark: listed apart in the source
# rat [3] = conditions: Sub-acute repeat dose toxicity, Oral, Gavage/Intubation, dose end: 4 day, group: systemic; remark: listed apart in the source
# rat [4] = conditions: Sub-acute repeat dose toxicity, Oral, Gavage/Intubation, dose end: 4 day, group: systemic; remark: listed apart in the source
# rat [5] = conditions: Carcinogenicity, fischer, Oral, Feed, dose end: 78 week, group: systemic
# rat [6] = conditions: Subchronic oral toxicity in rodents, fischer, Feed, dose end: 26 week, group: systemic
# mouse [7] = conditions: Carcinogenicity, b6c3f1, Oral, Feed, dose end: 80 week, group: systemic
# rat [8] = conditions: Sub-acute repeat dose toxicity, sprague dawley, Oral, Gavage/Intubation, dose end: 4 week, group: systemic
# dog = conditions: Sub-acute repeat dose toxicity; beagle; Oral; Gavage/Intubation; dose end: 4 week; group: systemic; systemic / clinical chemistry / alanine aminotransferase (alt/sgpt) / alanine aminotransferase (alt/sgpt) + systemic / clinical chemistry / …
# rat [9] = conditions: Carcinogenicity, fischer, Oral, Feed, dose end: 107 week, group: systemic
# mouse [10] = conditions: Carcinogenicity, b6c3f1, Oral, Feed, dose end: 100 week, group: systemic
# rat [11] = conditions: Neurotoxicity screening battery, sprague dawley, Injection, Subcutaneous, dose end: 22 week, group: cannot be grouped
# rat [12] = conditions: Prenatal developmental toxicity study; sprague dawley; Injection; Subcutaneous; dose end: 20 GD; group: maternal; reproductive / reproductive performance / premature delivery / premature delivery + systemic / in life observation / body weight / body …
# rat [13] = conditions: Peri- and post-natal toxicity study (Segment III); sprague dawley; Injection; Subcutaneous; dose end: 22 PND; group: parental; systemic / in life observation / body weight / body weight
# [14] = systemic / organ weight / liver / absolute
# [15] = systemic / organ weight / liver / absolute + systemic / pathology microscopic / liver / necrosis
# [16] = systemic / in life observation / clinical signs / abnormal respiratory sounds + systemic / in life observation / clinical signs / fur (…
# [17] = systemic / pathology microscopic / liver / necrosis
# [18] = systemic / in life observation / body weight / body weight + systemic / in life observation / mortality / mortality + systemic / pathology …
# [19] = systemic / pathology microscopic / liver / hepatocellular carcinoma + systemic / pathology microscopic / liver / neoplastic nodule + …
# [20] = systemic / clinical chemistry / glucose / glucose + systemic / clinical chemistry / potassium / potassium + systemic / clinical chemistry / …
# [21] = systemic / hematology / hematocrit (hct) / hematocrit (hct) + systemic / hematology / leukocyte (wbc) count differential / leukocyte (wbc…
# [22] = systemic / pathology microscopic / blood / lymphoma malignant + systemic / pathology microscopic / liver / hepatocellular carcinoma
# [23] = systemic / pathology microscopic / liver / hepatocellular carcinoma
# [24] = systemic / clinical chemistry / alanine aminotransferase (alt/sgpt) / alanine aminotransferase (alt/sgpt) + systemic / clinical chemistry / …
# [25] = systemic / organ weight / liver / absolute + systemic / organ weight / liver / relative to body weight + systemic / organ weight / liver / …
# [26] = systemic / in life observation / body weight / body weight + systemic / pathology microscopic / mammary gland / dilatation + systemic / …
# [27] = systemic / pathology microscopic / mammary gland / hyperplasia
# [28] = systemic / pathology gross / full gross necropsy / lymphoma malignant + systemic / in life observation / body weight / body weight gain
# [29] = systemic / pathology gross / full gross necropsy / lymphoma malignant + systemic / in life observation / body weight / body weight gain + …
# [30] = reproductive / reproductive performance / estrous cycle / periodicity + systemic / clinical chemistry / corticosterone / corticosterone + …
# [31] = systemic / clinical chemistry / corticosterone / corticosterone + systemic / in life observation / body weight / body weight gain
smiles,measurement,setting,value
CNCc1ccc(S(C)(=O)=O)cc1Oc1ccc(Cl)c(C)c1C,LOAEL,rat [1]; [14],> 100 mg/kg/day
same,NOAEL,rat [1]; [14],≥ 100 mg/kg/day
same,LEL,rat [1]; [15],30 mg/kg/day
same,NEL,rat [1]; [15],< 30 mg/kg/day
same,LOAEL,rat [2]; [16],> 500 mg/kg/day
same,NOAEL,rat [2]; [16],≥ 500 mg/kg/day
same,LEL,rat [2]; [17],30 mg/kg/day
same,NEL,rat [2]; [17],< 30 mg/kg/day
same,LOAEL,rat [3]; [16],> 500 mg/kg/day
same,NOAEL,rat [3]; [16],≥ 500 mg/kg/day
same,LEL,rat [3]; [17],30 mg/kg/day
same,NEL,rat [3]; [17],< 30 mg/kg/day
same,LOAEL,rat [4]; [16],> 500 mg/kg/day
same,NOAEL,rat [4]; [16],≥ 500 mg/kg/day
same,LEL,rat [4]; [17],30 mg/kg/day
same,NEL,rat [4]; [17],< 30 mg/kg/day
Nc1ccc2c(c1)C(=O)c1ccccc1C2=O [2-Aminoanthraquinone],LEL,rat [5]; [18],100 mg/kg/day
same,NEL,rat [5]; [18],< 100 mg/kg/day
same,LOAEL,rat [5]; [19],> 345 mg/kg/day
same,NOAEL,rat [5]; [19],≥ 345 mg/kg/day
same,LEL,rat [6]; [20],500 mg/kg/day
same,NEL,rat [6]; [20],< 500 mg/kg/day
same,LOAEL,rat [6]; [21],> 1000 mg/kg/day
same,NOAEL,rat [6]; [21],≥ 1000 mg/kg/day
same,LOAEL,mouse [7]; [22],> 1500 mg/kg/day
same,NOAEL,mouse [7]; [22],≥ 1500 mg/kg/day
same,LEL,mouse [7]; [23],750 mg/kg/day
same,NEL,mouse [7]; [23],< 750 mg/kg/day
O=C(NC(=O)c1cc(F)c(F)cc1Cl)Nc1cc(F)ccc1N1CCC(C(=O)O)CC1 [AVE2865],LOAEL,rat [8]; [24],35 mg/kg/day
same,NOAEL,rat [8]; [24],5 mg/kg/day
same,LEL,rat [8]; [25],5 mg/kg/day
same,NEL,rat [8]; [25],< 5 mg/kg/day
same,LEL,dog,1 mg/kg/day
same,LOAEL,dog,> 10 mg/kg/day
same,NEL,dog,< 1 mg/kg/day
same,NOAEL,dog,≥ 10 mg/kg/day
[Ca+2].[N-]=C=[N-] [Calcium cyanamide],LOAEL,rat [9]; [26],> 10 mg/kg/day
same,NOAEL,rat [9]; [26],≥ 10 mg/kg/day
same,LEL,rat [9]; [27],5 mg/kg/day
same,NEL,rat [9]; [27],< 5 mg/kg/day
same,LEL,mouse [10]; [28],75 mg/kg/day
same,NEL,mouse [10]; [28],< 75 mg/kg/day
same,LOAEL,mouse [10]; [29],> 300 mg/kg/day
same,NOAEL,mouse [10]; [29],≥ 300 mg/kg/day
C[C@]12C[C@H](O)[C@H]3[C@@H](CCC4=CC(=O)CC[C@@]43C)[C@@H]1CC[C@@H]2C(=O)CO [Corticosterone],LOAEL,rat [11]; [30],> 40 mg/kg/day
same,NOAEL,rat [11]; [30],≥ 40 mg/kg/day
same,LEL,rat [11]; [31],10 mg/kg/day
same,NEL,rat [11]; [31],< 10 mg/kg/day
same,LEL,rat [12],40 mg/kg/day
same,LOAEL,rat [12],> 40 mg/kg/day
same,NEL,rat [12],< 40 mg/kg/day
same,NOAEL,rat [12],≥ 40 mg/kg/day
same,LEL,rat [13],40 mg/kg/day
same,LOAEL,rat [13],> 40 mg/kg/day
same,NEL,rat [13],< 40 mg/kg/day
same,NOAEL,rat [13],≥ 40 mg/kg/day
